These results are taken from ChEMBL document CHEMBL1687721, “New drugs against tuberculosis: problems, progress, and evaluation of agents in clinical development” (Antimicrob Agents Chemother, 2009).

Assay type in all cases: functional
Experiment [1] deals with Mycobacterium tuberculosis. Kind of experiment: Antimicrobial activity against rifampicin-resistant Mycobacterium tuberculosis.
The test system of experiment [2] is Mycobacterium tuberculosis. Kind of experiment: Antimicrobial activity against multiple drug-resistant Mycobacterium tuberculosis.
Experiment [3] has as its system Mycobacterium tuberculosis. Kind of experiment: Antimicrobial activity against compound-resistant Mycobacterium tuberculosis.

Molecules are shown by their SMILES. Converted amounts (≈) assume the structure as drawn.

The term MIC denotes the lowest concentration found to suppress growth. Read a high MIC as a need for much substance. Turning to `COc1c(N2CCNC(C)C2)c(F)cc2c(=O)c(C(=O)O)cn(C3CC3)c12` (stereo unspecified) [GATIFLOXACIN], the MIC in experiment [1] amounted to 0.2 µg/mL (≈ 0.533 µM).
For `COc1nc2ccc(Br)cc2cc1[C@@H](c1ccccc1)[C@@](O)(CCN(C)C)c1cccc2ccccc12` [BEDAQUILINE], in experiment [2], it took 0.03 µg/mL (≈ 0.054 µM) to inhibit growth (MIC).
Regarding `C[C@]1(COc2ccc(N3CCC(Oc4ccc(OC(F)(F)F)cc4)CC3)cc2)Cn2cc([N+](=O)[O-])nc2O1`, in experiment [3], the MIC turned out to be 0.006 µg/mL (≈ 0.0112 µM).
With `CO[C@H]1/C=C/O[C@@]2(C)Oc3c(C)c(O)c4c(O)c(c(/C=N/N5CCN(C6CCCC6)CC5)c(O)c4c3C2=O)NC(=O)/C(C)=C\C=C\[C@H](C)[C@H](O)[C@@H](C)[C@@H](O)[C@@H](C)[C@H](OC(C)=O)[C@@H]1C` [RIFAPENTINE], in experiment [1], the MIC came to 0.02 µg/mL (≈ 0.0228 µM).
Regarding `O=[N+]([O-])c1cn2c(n1)OC[C@@H](OCc1ccc(OC(F)(F)F)cc1)C2` [PRETOMANID], it took 0.015 µg/mL (≈ 0.0418 µM) to inhibit growth in experiment [2] (MIC).
With `CC(C)=CCC/C(C)=C/CNCCNC1C2CC3CC(C2)CC1C3` (stereo unspecified) [SQ109], the MIC in experiment [3] came out at 0.16 µg/mL (≈ 0.484 µM).
